Experimental data taken from patent US8193351B2, “HSP90 inhibitor” (Chugai Seiyaku Kabushiki Kaisha, priority 2006, dated 2012).

Tests used:
Human HSP90 alpha = target: T1, Human HSP90 alpha (Homo sapiens, UniProt P07900); experiment: Measurement of HSP90 enzyme inhibitory activity (ATPase, malachite green); type: biochemical; conditions: purified human HSP90 alpha, 1 mM ATP added, 37° C., two hours; read-out: Enzyme inhibitory activity (IC50, μM) Human HSP 90α
T1 construct: made in house; host or cells: E. coli BL21 codon plus (Stratagene)
Experimental: HSP90 enzyme inhibitory activity of the compounds of the present invention represented by formula (1) was measured by the following method. Among the 6-phenyl-N-phenyl-(1,3,5)triazin/(1,3)pyrimidin-2,4-diamine derivatives which are known LPAAT-β inhibitors, the following two compounds were used as comparative compounds, and their HSP90 enzyme inhibitory activities were measured similarly by the following method.
Introduction of pETHuHSP90a into E. coli (BL21 codon plus; Stratagene) was followed by O/N incubation in the presence of 0.1 mM IPTG, and the collected E. coli cells were disrupted by ultrasonication in a Lysis buffer (50 mM Tris-HCl (pH8.0), 10 mM MgCl2, 0.1% Triton X-100, Protease inhibitor cocktail tablets (Roche Diagnostics)). The cell lysate solution was centrifuged (10,000 rpm×30 minutes), and the supernatant obtained after centrifugation was used as a crude extract. The crude extract was fractionated using HisPrep FF column and HiTrap Q column (Amersham) to prepare a purified enzyme solution.
An enzyme solution for assays was prepared by dilution of the purified enzyme solution using an assay buffer (50 mM Tris HCl pH7.6, 20 mM KCl, 5 mM MgCl2).
10 μL each of various concentrations of the test substances (10% DMSO solution) was added to each well, and for the positive control wells, 10 μL of 10% DMSO was added. 10 μL of 10% DMSO was also added to the negative control well.
10 μL of 1 mM ATP was added to all of the wells, and the reaction was carried out at 37° C. for two hours.

HCT116 cells = experiment: Measurement of cell growth inhibition (Cell Counting Kit-8, four days); type: cell-based; conditions: Homo sapiens, HCT-116, 96 h; HCT116 colon cancer cell line, four days culture; read-out: Cell growth inhibitory activity (IC50, μM) HCT116
Experimental: Cell growth inhibitory activities of the compounds of the present invention represented by formula (1) were measured by the following method.
Cells were maintained under conditions recommended by the provider of each cell line. Cells suspended in a medium were added to solutions containing various concentrations of the test substance, and the cells were cultured at 37° C. in a 5% CO2 incubator. Four days later, Cell Counting Kit-8 was added, and absorbance measurements were taken following the protocol included in the kit.

Row | IC50 (Human HSP90 alpha) [µM] | IC50 (HCT116 cells) [µM] | Structure (SMILES)
1 | 1.2 | 0.49 | Nc1nc(SCCC(=O)NC[C@@H](O)CO)nc(-c2c(Cl)cc3c4c(cccc24)COC3)n1 [Example 335, 3-[4-amino-6-(5-chloro-1H,3H-benzo[de]isochromen-6-yl)-[1,3,5]triazin-2-ylsulfanyl]-N—((R)-2,3-dihydroxy-propyl)-propionamide]
2 | 2.1 | 0.45 | NC(=O)CCSc1cc(-c2c(Cl)cc3c4c(cccc24)COC3)nc(N)n1 [Example 316, 3-[2-amino-6-(5-chloro-1H,3H-benzo[de]isochromen-6-yl)-pyrimidin-4-ylsulfanyl]-propionamide]
3 | 1 | 0.31 | CS(=O)(=O)NCCSc1cc(-c2c(Cl)cc3c4c(cccc24)COC3)nc(N)n1 [Example 329, N-{2-[2-amino-6-(5-chloro-1H,3H-benzo[de]isochromen-6-yl)-pyrimidin-4-ylsulfanyl]-ethyl}-methanesulfonamide]

Further lines, the compound ahead of its results:

Row | Structure (SMILES) | IC50 (Human HSP90 alpha) [µM] | IC50 (HCT116 cells) [µM]
4 | COc1ccc(OC)c(Sc2cc(-c3ccc(OCC(N)=O)cc3C)nc(N)n2)c1 [Example 46, 2-{4-[2-amino-6-(2,5-dimethoxyphenylsulfanyl)-pyrimidin-4-yl]-3-methylphenoxy}-acetamide] | 1.5 | 8.1
5 | COc1cc(C(=O)N2CCN(C)CC2)ccc1Sc1nc(N)nc(-c2cc(OCC#N)c(Cl)cc2Cl)n1 [Example 15, (5-{4-amino-6-[2-methoxy-4-(4-methyl-piperazin-1-carbonyl)-phenylsulfanyl]-[1,3,5]triazin-2-yl}-2,4-dichlorophenoxy)-acetonitrile] | 2 | 0.35
6 | COc1ccc(Oc2nc(N)nc(-c3c(Cl)cc4c5c(cccc35)COC4)n2)cc1OC [Example 82, 4-(5-chloro-1H,3H-benzo[de]isochromen-6-yl)-6-(3,4-dimethoxyphenoxy)-[1,3,5]triazin-2-ylamine] | 1.4 | 6.1
7 | CC(=O)NCCSc1nc(N)nc(-c2cc(-c3ncccn3)c(Cl)cc2Cl)n1 [Example 25, N-{2-[4-amino-6-(2,4-dichloro-5-pyrimidin-2-yl-phenyl)-[1,3,5]triazin-2-ylsulfanyl]-ethyl}-acetamide] | 2.6 | 0.66
8 | CC(=O)Nc1ccccc1CSc1nc(N)nc(-c2c(Cl)cc3c4c(cccc24)COC3)n1 [Example 143, N-{2-[4-Amino-6-(5-chloro-1H,3H-benzo[de]isochromen-6-yl)-[1,3,5]triazin-2-ylsulfanylmethyl]-phenyl}-acetamide] | 1 | 0.28
